From patent US11679107B2 (Eisai R&D Management Co., Ltd., priority 2018, dated 2023)
Like-named read-outs stand apart in the source and are kept apart here.

How the values were obtained:
[1] = target: T1, SF3b complexes (Homo sapiens, UniProt O75533+Q7RTV0); assay: Scintillation proximity assay (SPA) with [3H]-labelled pladienolide probe; format: binding; conditions: SF3B1 (WT); geometric mean; read-out: SPA-ATS GMean IC50 (nM) SF3B1 (WT)
T1 construct: endogenous in cells; host or cells: Nuclear extracts; A HeLa S3 extract preparation is described for the in vitro splicing assay
How it was run: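 SF3b complexes captured from nuclear extracts on anti-SF3B1 antibody SPA beads; test compounds pre-incubated 30 min before 2.5 nM [3H]-pladienolide probe added, then 30 min incubation. Bound probe read by scintillation; values from non-linear regression of concentration–response curves.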

[2] = system: NCI-H1568 cells (high MCL1); assay: Cell proliferation and viability, CellTiter-Glo, 72 hours; format: cell-based; conditions: for GI50: geometric mean
How it was run: (§1)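 Cells grown in RPMI-1640 with 10% FBS (Panc 05.04 with added insulin, 15% FBS total) were exposed to an 11-point half-log dilution, typically 10 μM–100 pM, at 0.1% DMSO for 72 h at 37 °C. ATP content was read by CellTiter-Glo luminescence. Percent inhibition was set against a time-zero plate and DMSO vehicle wells, on a −100% (cidal) to 100% (uninhibited growth) scale.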

[3] = system: Panc 05.04 cells (SF3b K700E mutant); assay: as above; format: cell-based; conditions: for GI50: geometric mean
How it was run: as §1

[4] = system: Ad2 variant pre-mRNAs spliced in HeLa S3 nuclear extracts; assay: In vitro splicing assay (IVS), RT-qPCR of spliced product; format: biochemical; conditions: for IC50: geometric mean; for Ratio Ad2.1/2.2: ratio of IVS IC50 Ad2.1 to Ad2.2
How it was run: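 Ad2 variant pre-mRNA (2 ng) with FTZΔi control RNA in HeLa S3 nuclear extract (8 μg) was pre-incubated with compound or DMSO for 15 min at 30 °C. Splicing ran 90 min at 30 °C after adding 0.5 mM ATP, creatine phosphate and MgCl2. Spliced product was quantified by TaqMan RT-qPCR, normalized to DMSO, and curve-fitted.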

[5] = NCI-H1568, read-out: CTGlo-ATS GMean GI50 (nM) 72 h NCIH1568.1, NCIH1568.1 cells, 72 h
[6] = NCIH1568.1 cells, 72 h, −100% cidal, 0% static, 100% maximal growth
[7] = PANC0504.1 cells, 72 h, −100% cidal, 0% static, 100% maximal growth
[8] = Panc 05.04, read-out: CTGlo-ATS GMean GI50 (nM) 72 h PANC0504.1, PANC0504.1 cells, 72 h
[9] = Ad2.1 pre-mRNA substrate, read-out: qPCR-IVS-ATS GMean IC50 (nM) Ad2.1
[10] = Ad2.2 pre-mRNA substrate, read-out: qPCR-IVS-ATS GMean IC50 (nM) Ad2.2
[11] = 72 h, NCIH1568.1, -100% = cidal, 0% = static, 100% = uninhibited growth
[12] = NCI-H1568, 72 h, read-out: CTGlo-ATS GMean GI50 (nM) 72 h NCIH1568.1, 72 h, NCIH1568.1
[13] = 72 h, PANC0504.1, -100% = cidal, 0% = static, 100% = uninhibited growth
[14] = Panc 05.04, 72 h, read-out: CTGlo-ATS GMean GI50 (nM) 72 h PANC0504.1, 72 h, PANC0504.1

Structure (SMILES) | IC50 [1] [nM] | GI50 [2, 5] [nM] | CTGlo-ATS Mean MinResponse % 72 h NCIH1568.1 [2, 6] [%] | CTGlo-ATS Mean MinResponse % 72 h PANC0504.1 [3, 7] [%] | GI50 [3, 8] [nM] | IC50 [4, 9] [nM] | IC50 [4, 10] [nM] | CTGlo-ATS Mean MinResponse % 72 h NCIH1568.1 [2, 11] [%] | GI50 [2, 12] [nM] | CTGlo-ATS Mean MinResponse % 72 h PANC0504.1 [3, 13] [%] | GI50 [3, 14] [nM] | Ratio Ad2.1/2.2 [4] | GI50 ([2]; NCI-H1568, read-out: CTGlo-ATS GMean GI50 (nM) 72 h NCIH1568.1, 72 h, NCIH1568.1) [nM] | GI50 ([3]; Panc 05.04, read-out: CTGlo-ATS GMean GI50 (nM) 72 h PANC0504.1, 72 h, PANC0504.1) [nM] | GI50 ([2]; NCI-H1568, 72 h, read-out: CTGlo-ATS GMean GI50 (nM) 72 h NCIH1568.1, NCIH1568.1 cells, 72 h) [nM] | GI50 ([3]; Panc 05.04, 72 h, read-out: CTGlo-ATS GMean GI50 (nM) 72 h PANC0504.1, PANC0504.1 cells, 72 h) [nM]
C/C(=C\c1ccc2cnn(C)c2c1)[C@H]1OC(=O)C[C@H](O)CC[C@H](C)[C@@H](OC(=O)N2CCN(C)CC2)/C=C/[C@@H]1C [Compound 55] | 2.37 | 21.2 | −57.557 | −85.478 | 17.2 | 19900 | 45.3 | – | – | – | – | – | – | – | – | –
C/C(=C\c1cccc(COC(=O)N2CCOCC2)c1)[C@H]1OC(=O)C[C@H](O)CC[C@H](C)[C@@H](OC(=O)N2CCN(C)CC2)/C=C/[C@@H]1C [Compound 257, [3-[(E)-2-[(2S,3S,4E,6R,7S,10R)-10-hydroxy-3,7-dimethyl-6-(4-methylpiperazine-1-carbonyl)oxy-12-oxo-1-oxacyclododec-4-en-2-yl]prop-1-enyl]phenyl]methyl morpholine-4-carboxylate] | 5.75 | – | – | – | – | > 25000 | 117 | −4.151 | 266 | −75.412 | 71.5 | 213.903 | – | – | – | –
CN[C@@H]1CCN(c2cccc(/C=C(\C)[C@H]3OC(=O)C[C@H](O)CC[C@H](C)[C@@H](OC(=O)N4CCN(C)CC4)/C=C/[C@@H]3C)c2)C1 [Compound 9] | 14.9 | 116 | −83.308 | −87.085 | 63.9 | 107 | 27 | – | – | – | – | – | – | – | – | –
C/C(=C\c1cc(F)cc(NS(=O)(=O)N(C)C)c1)[C@H]1OC(=O)C[C@H](O)CC[C@H](C)[C@@H](OC(=O)N2CCN(C)CC2)/C=C/[C@@H]1C [Compound 248, [(2S,3S,4E,6R,7S,10R)-2-[(E)-1-[3-(dimethylsulfamoylamino)-5-fluorophenyl]prop-1-en-2-yl]-10-hydroxy-3,7-dimethyl-12-oxo-1-oxacyclododec-4-en-6-yl] 4-methylpiperazine-1-carboxylate] | 6.62 | – | – | – | – | > 25000 | 76.4 | −46.753 | – | −92.622 | – | 327.274 | 97 | 75.8 | – | –
C/C(=C\c1cc(F)cc(N2CCOCC2)c1)[C@H]1OC(=O)C[C@H](O)CC[C@H](C)[C@@H](OC(=O)N(C)C2CCCN(C)C2)/C=C/[C@@H]1C (stereo partly shown) [Compound 37] | 2.27 | 4.75 | −82.247 | −86.134 | 4.61 | 85.8 | 20.2 | – | – | – | – | – | – | – | – | –
C/C(=C\c1cccc(S(=O)(=O)N2CCNCC2)c1)[C@H]1OC(=O)C[C@H](O)CC[C@H](C)[C@@H](OC(=O)N2CCN(C)CC2)/C=C/[C@@H]1C [Compound 93] | 24.7 | 73.8 | −57.108 | −97.726 | 109 | 219 | 41.6 | – | – | – | – | – | – | – | – | –
C/C(=C\c1cc(F)cc(N2CCN(CC3CC3)C2=O)c1)[C@H]1OC(=O)C[C@H](O)CC[C@H](C)[C@@H](OC(=O)N2CCN(C)CC2)/C=C/[C@@H]1C [Compound 68] | 3.39 | 12.4 | −67.270 | −93.925 | 11.7 | 1870 | 35.7 | – | – | – | – | – | – | – | – | –
C/C(=C\c1cc(C)cc2[nH]ncc12)[C@H]1OC(=O)C[C@H](O)CC[C@H](C)[C@@H](OC(=O)N2CCN(C)CC2)/C=C/[C@@H]1C [Compound 96] | 2.4 | 305 | −29.687 | −14.554 | 168 | > 25000 | 108 | – | – | – | – | – | – | – | – | –
C/C(=C\c1cc(F)cc(N2CC[C@H](N(C)C)C2)c1)[C@H]1OC(=O)C[C@H](O)CC[C@H](C)[C@@H](OC(=O)N2CCN(C)CC2)/C=C/[C@@H]1C [Compound 17] | 10.7 | 53.4 | −87.647 | −72.749 | 57.8 | 46.8 | 34 | – | – | – | – | – | – | – | – | –
C/C(=C\c1cc(F)cc(-n2ccnc2)c1)[C@H]1OC(=O)C[C@H](O)CC[C@H](C)[C@@H](OC(=O)N2CCN(C)CC2)/C=C/[C@@H]1C [Compound 60] | 2.99 | 29.9 | −42.456 | −87.159 | 26.7 | > 25000 | 55.5 | – | – | – | – | – | – | – | – | –
C/C(=C\c1cc(F)cc(N2CCOCC2)c1)[C@H]1OC(=O)C[C@H](O)CC[C@H](C)[C@@H](OC(=O)N2CCC(N3CCCCC3)CC2)/C=C/[C@@H]1C [Compound 262, [(2S,3S,4E,6R,7S,10R)-2-[(E)-1-(3-fluoro-5-morpholin-4-ylphenyl)prop-1-en-2-yl]-10-hydroxy-3,7-dimethyl-12-oxo-1-oxacyclododec-4-en-6-yl] 4-piperidin-1-ylpiperidine-1-carboxylate] | 5.66 | – | – | – | – | 4100 | 51.6 | −65.862 | 41.7 | −91.709 | 29.3 | 79.467 | – | – | – | –
C/C(=C\c1cc(F)cc(N2CCN(C(=O)C3CCCCC3)CC2)c1)[C@H]1OC(=O)C[C@H](O)CC[C@H](C)[C@@H](OC(=O)N2CCN(C)CC2)/C=C/[C@@H]1C [Compound 114] | 18.2 | – | −87.102 | −82.856 | – | 103 | 39.1 | – | – | – | – | – | – | – | 9.35 | 12.3
C/C(=C\c1ccc2cn[nH]c2c1)[C@H]1OC(=O)C[C@H](O)CC[C@H](C)[C@@H](OC(=O)N2CCN(C)CC2)/C=C/[C@@H]1C [Compound 4] | 3.8 | 15.5 | −46.416 | −27.423 | 26.9 | > 25000 | 58.7 | – | – | – | – | – | – | – | – | –
